Test results taken from a melting point compilation (Tetko et al.; mined from patent text by program, amines drawn as free bases though some values may be those of a salt).

SMILES | melting point [°C]
Cn1nc(C(F)(F)F)cc1Oc1cc(C#N)cc(Oc2cc(C(F)(F)F)nn2C)c1 | 139
COc1ccc(N2CCN(c3c(C)c(C)c4c(c3C)C(c3cccs3)C(C)(C)O4)CC2)cc1 (stereo not given) | 139 to 141
CC(Cc1ccc(OCc2cccc(C(N)=O)c2)cc1)NCCC(c1ccccc1)c1ccccc1 (stereo not given) | 188 to 190
O=C(c1ccc(F)cc1)N1CCC[C@H](c2nc(-c3ccc4ccccc4c3)no2)C1 | 142 to 143
Nn1c(C(F)(F)F)cc(=O)n(-c2cc([N+](=O)[O-])c(Br)cc2F)c1=O | 165
O=C(CC(O)C(=O)O)c1ccc(C(F)(F)F)cc1 (stereo not given) | 118 to 120
Cc1oc2ccc(-n3nnc4cccnc43)cc2c1C | 152 to 153
CC(C)(C)OC(=O)NC(Cc1cc(C(=O)c2cc(C(F)(F)F)cc(C(F)(F)F)c2)ccc1[N+](=O)[O-])C(=O)OC(C)(C)C (stereo not given) | 176 to 177
N#Cc1ccc(N2C(=O)NC3(CCS(=O)CC3)C2=O)cc1C(F)(F)F (stereo not given) | 260 to 277
COC(=O)C(=O)NC(=O)N1CCCCC1 | 92 to 93
CCc1ccc(NC(=O)c2sccc2S(=O)(=O)Nc2onc(C)c2Br)cc1 | 187 to 190
CCCCNC(=O)OC1c2cc(C(F)(F)F)ccc2C(=O)N1c1ccc2ccc(Cl)nc2n1 (stereo not given) | 120
O=C1CCC(N2Cc3c(OCc4ccc(CN5CCN(CC(F)(F)F)CC5)cc4)cccc3C2=O)C(=O)N1 (stereo not given) | 133 to 135
CC(=O)OC1CSC(Oc2cncc(-c3ccc(N4CCCCC4)cc3)c2)C(OC(C)=O)C1OC(C)=O (stereo not given) | 196
CCCc1c(OCc2ccc(C(=O)O)cc2[N+](=O)[O-])ccc(C(C)=O)c1O | 226 to 228
Cc1nc2c(c(=O)[nH]1)-c1ccc(Cl)cc1C(c1ccccc1)=[N+]([O-])C2 | 219 to 221
Cc1cc(C(O)=S)cc(N)c1C(=O)c1ccccc1 | 158 to 159
Cc1noc(CC(=O)Oc2ccc(Br)cc2)n1 | 73 to 74
Clc1ccc2nc(CN3CCN(c4ccccc4)CC3)cn2c1 | 128 to 130
c1ccc(C23CC(C2)C3)cc1 | 64 to 65
Cc1ccc(S(=O)(=O)NC(=O)n2sc(Cl)cc2=O)cc1 | 125 to 128
c1ccc(OCCSCc2nnc(-c3ccc(OCCCCN4CCCC4)cc3)o2)cc1 | 45
CC1CCN(CC#CCN2C(=O)c3cccc4c3N(CC4)c3ccccc32)CC1 | 157 to 158
CCOC(=S)c1ncncc1C | 99 to 100

SMILES | melting point [°C]
COc1ccc(-c2nc3ncccc3o2)cc1OC1CCCC1 | 108 to 109
COc1ccc2cc(C#N)ccc2n1 | 163 to 165
C(#Cc1ccc(-c2nc3ccccc3s2)cc1)c1ccccc1 | 172 to 173
O=C(CN1CCC(Cc2ccccc2)CC1)Nc1ccc2[nH]c(=O)oc2c1 | 210 to 212
COc1cc2cc(C(=O)N3CC(COS(C)(=O)=O)c4c3cc([N+](=O)[O-])c3ccccc43)[nH]c2c(OC)c1OC (stereo not given) | 214
CC(O)(c1ccsc1)c1nccs1 (stereo not given) | 120 to 122
CC(C)CCC(O)C(C(=O)C(Cc1c[nH]cn1)N(C)C(=O)C(Cc1ccccc1)OC(=O)N(C)CCN(C)C(=O)C(C)C)C(N)C1CCCCC1 (stereo not given) | 68 to 72
O=c1[nH]c(CCN2CCN(c3ccccc3)CC2)c(-c2ccc(F)cc2)[nH]1 | 232 to 234
Cc1ccc(Sc2cc(C(C)(C)C)c(O)c(C(=O)O)c2C)cc1 | 163 to 164
Cc1ccc2c(NCc3ccc(NC(=O)C4CCN(Cc5ccccc5)CC4)cc3)nc(Cl)nc2c1 | 212
COc1ccc2c(c1)CCN(C#N)C2c1cc(OC)c(OC)c(OC)c1 (single isomer, unassigned; (-)) | 132 to 134
CCCCn1c(C)c(C(=O)NC2CCN(CCc3ccccc3)CC2)c2cc(O)ccc21 | 178 to 181
Cc1ccccc1-c1ccc2ccccc2c1C(=O)N(C)C | 108 to 109
O=C(O)C=Cc1cccc2cc[nH]c12 | 179 to 181
NS(=O)(=O)c1ccc(-n2nc(C(F)(F)F)cc2OS(=O)(=O)C(F)(F)F)cc1 | 114 to 115
O=[N+]([O-])c1cc(CCO)c(NCCO)c([N+](=O)[O-])c1 | 115
CC[C@@]12C[C@@](C)(O)[C@](O)(c3ccccc3)C[C@H]1CCc1cc(OCC(=O)NCCCC#N)ccc12 | 185 to 186
CC1N=Cc2cc(Cl)ccc2-n2c(Cc3ccccc3)nnc21 (stereo not given) | 195 to 197
CN(Cc1ccc(CCn2cnc3cc(-c4ccc(Cl)cc4)sc3c2=O)cc1)C(=O)OC(C)(C)C | 206 to 209
CC(=O)NC(=O)CSC(=O)Cc1ccccc1 | 123 to 124
Nc1ccc(S(=O)(=O)Nc2cccc3c(Cl)c[nH]c23)cc1 | 174 to 176
CS(=O)(=O)N1CCN([C@@H](CNS(=O)(=O)c2ccc(OCc3ccnc(-c4ccccc4)c3)cc2)C(=O)NO)CC1 | 100
CNc1nnc(S[Si](C)(C)C)s1 | 80 to 82
CC#CN(C)c1nc2ccccc2s1 | 58 to 59

SMILES | melting point [°C]
COc1ccc2c(c1[N+](=O)[O-])CNCC(=O)N2 | 220 to 222
COc1cc2c(cc1OC)-c1c(-c3nc(-c4ccccc4)no3)c(-c3cc(C)c(O)c(C)c3)c(C)n1CC2 | 191 to 193
CCOC(=O)NC(=O)Nc1ccc(Cl)cc1C(=O)c1ccccc1F | 208 to 209
O=C(NCCCc1ccncc1)N(CCC12CC3CC(CC(C3)C1)C2)CC1CCCC1 | 155 to 158
Cn1c(CNCC(C)(C)O)cc2cc(NC(=O)c3ccc(OCC4CCOC4)cc3)ccc21 (stereo not given) | 169
COC(=O)c1cc(C=O)cc([N+](=O)[O-])c1 | 85
CCOC(=O)C(Cl)=Cc1cc(NC(=O)C2=C(C(N)=O)CCCC2)ccc1Cl | 185 to 186
Cc1oncc1C(=O)N1CCCCC1 | 40 to 43
Cc1noc(NC(=O)N2CCN(c3cc(-c4ccccc4F)ncn3)CC2)c1C | 189 to 190
COC(=O)CC1CC(c2ccc(C#N)cc2F)=NO1 (stereo not given) | 92 to 94
CCOC(=O)COc1cccc2nc3c(c(N)c12)CCCC3 | 141 to 142
O=C1OC(Cc2ccc([N+](=O)[O-])cc2)C(=O)N1Cc1ccccc1 (stereo not given) | 92 to 93
CC(C)Oc1cccc(C=C2Oc3ccc(C(=O)O)cc3C2=O)c1 | 277 to 279
CCOC(=O)Nc1c(C(=O)OCC)oc2cc(OCc3ccccc3)ccc12 | 100
COC(=O)c1cnn(C)c1S(=O)(=O)NC(=O)Nc1nc(C)cc(OC)n1 | 183 to 184
Nc1ccccc1NC(=O)CCN1CCN(c2cccc(C(F)(F)F)c2)CC1 | 194 to 196
CS(=O)(=O)c1ccc(-c2cnn(-c3cccc(Cl)c3)c(=O)c2CCc2ccccc2)cc1 | 142 to 145
CC1(C)CCC(C)(C)c2cc(-c3cc(-c4ccc(C(=O)O)cc4)ccc3OCCCCNC3CC3)ccc21 | 160
CC(=O)N1CCN=C1c1c(Cl)nc(N)nc1Cl | 221
CC(C)n1cc(-c2nn(-c3cccc(C(F)(F)F)c3)ccc2=O)c(-c2ccccc2)n1 | 138 to 140
CC(=O)C1CCC2C3CCC4CC=CCC4(C)C3C(OC(=O)CI)CC12C (stereo not given) | 127 to 129
CN(CCc1ccccc1)C(=O)Cn1cc(C=C(C(=O)O)C(C)(C)C)c2cc([N+](=O)[O-])ccc21 | 140 to 143
CC(C)(C)OC(=O)N[C@@H](Cc1ccccc1)C(=O)N[C@H]1CCOC1=O | 132 to 133
COc1cccc2c1CC(C(=O)NCc1ccc(C(=O)O)cc1)N2S(=O)(=O)c1ccc(-c2ccc(F)cc2Cl)cc1 (stereo not given) | 225 to 234

SMILES | melting point [°C]
CN1CCN(C(=O)c2ccc(-c3cnc4c(c3)N(Cc3cc(F)ccc3F)C(=O)C(C)(C)N4)cc2)CC1 | 204 to 206
Cn1c(C(F)(F)C(F)(F)F)cc(=O)n(-c2cc(C(=O)O)c(Cl)cc2F)c1=O | 229 to 231
N#Cc1ccc(NC(=S)NCc2ccccn2)cc1 | 144
CC(C)(C)OC(=O)OCc1ccc(COC(=O)OC(C)(C)C)cc1 | 71 to 74
O=C(CNC1CCCCC1)Nc1ccc(C(=O)N2CCCCc3ccccc32)cc1 | 139 to 142
CN(C)c1cccc2c(S(=O)(=O)N3CCC(NC(=O)Nc4ccc(OC(F)(F)F)cc4)CC3)cccc12 | 102 to 107
CC(C)N=c1[nH]c2ccc(Cl)cc2c2nc(-c3ccco3)nn12 | 140 to 141
C#CCOc1ccc2c(C)cc(=O)oc2c1C(=O)C=Cc1cc(OC)c(OC)c(OC)c1 | 191 to 193
CC(C)(C)COc1c(NCCCBr)c(=O)c1=O | 111 to 113
C[C@@H](O)C(O)(Cn1ccnc1)c1ccc(F)cc1F (stereo not given in full) | 73 to 76
O=c1c2[nH]nnc2nc2sc(CCc3ccccc3)nn12 | 295 to 296
CCCn1ccc2c(c1=O)C(c1cccc(Cl)c1Cl)C(C(=O)OCC)=C(C)N2 (stereo not given) | 264 to 265
CCCc1[nH]c2cc(C(=O)OC)ccc2c1C(=O)C1CCCCC1 | 136 to 137
CCN(CC)CCCCC1CCN(CCNC(=O)N2c3cc(Cl)ccc3C(=O)Nc3cccnc32)CC1 | 157
O=C(NCCN1CCC(Nc2nc3ccccc3n2Cc2ccc(F)cc2)CC1)c1cc2ccccc2[nH]1 | 232
COc1ccc2[nH]cc([C@H]3CC[C@@H](N4CCN(c5cccc6[nH]ccc56)CC4)CC3)c2c1 | 105 to 108
CC(C)OP(=O)(OC(C)C)c1nc(N)nc(P(=O)(OC(C)C)OC(C)C)n1 | 123 to 124
COc1cc2c(cc1OC(C)C)-c1c(-c3cccs3)c3c(n1CC2)C(=O)N(C(C)C)CCN(C(=O)OC(C)(C)C)C3 | 205 to 206
Cc1cc(C)c(S(=O)(=O)ON)c(C)c1 | 90 to 91
COC(=O)COc1cccc2c(CCSC(c3ccc(Cl)cc3)c3ccc(Cl)cc3)coc12 | 68 to 69
Cc1[nH]cnc1CSCCNc1[nH]cc(-c2ccccc2)c1[N+](=O)[O-] | 182 to 184
O=c1oc(-c2ccc(F)cc2)cc2ccccc12 | 134 to 135
CCCn1nc(-c2ccc(Cl)c(Cl)c2)c(-n2ccnc2)c1SC | 91 to 93
